# Laboratory results reported in patent publication US12172989B2, “Histone acetyltransferase (HAT) inhibitor and use thereof” (SHANGHAI INSTITUTE OF MATERIA MEDICA, CHINESE ACADEMY OF …, priority 2018, dated 2024).
# Molecular target: T1, histone acetyltransferase p300 (Homo sapiens, UniProt Q09472)
# T1 construct: purchased BPS Corporation 50071
# T1 sequence (Q09472 1284-1673 limits assumed): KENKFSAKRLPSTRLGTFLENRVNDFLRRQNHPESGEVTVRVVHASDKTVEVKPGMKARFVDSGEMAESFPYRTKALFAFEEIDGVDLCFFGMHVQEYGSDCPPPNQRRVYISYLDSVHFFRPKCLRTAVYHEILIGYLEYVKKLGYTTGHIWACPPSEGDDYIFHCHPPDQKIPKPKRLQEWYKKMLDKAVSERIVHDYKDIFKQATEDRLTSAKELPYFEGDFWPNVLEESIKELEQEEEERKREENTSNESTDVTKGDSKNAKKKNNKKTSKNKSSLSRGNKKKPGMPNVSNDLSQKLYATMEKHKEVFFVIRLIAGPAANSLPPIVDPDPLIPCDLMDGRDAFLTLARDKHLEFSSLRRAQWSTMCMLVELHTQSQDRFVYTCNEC
# Experiment: Histone acetyltransferase (p300) activity assay (radioisotope, [3H]-Ac-CoA)
# Format: biochemical
# Conditions: p300 0.05 nM; histone peptide 600 nM, [3H]-Ac-CoA 250 nM; 60 min at room temperature; read-out: Inhibition rate IC50
# Experimental: The reaction was finally terminated with Ac-CoA (Sigma, Cat. No. A2056) without isotope labeling. If the activity of the acetyltransferase p300 was inhibited, the isotope signal cannot be detected on the substrate polypeptide. Therefore, the inhibitory activity of the compound against the acetyltransferase p300 was evaluated.
# In the enzyme reaction system, 200 nL of a diluted compound (100% DMSO) was first transferred to a test plate using Echo, where the final concentration of the compound in the enzyme reaction system ranges from 0.25 to 5000 nM. Then 10 μL/well of p300 protein (final concentration of 0.05 nM) was transferred therein, and incubated with the compound for 15 min at room temperature. Then 10 μL/well of a substrate mixture (final concentrations of histone peptide and [^3H]—Ac-CoA were 600 nM and 250 nM, respectively) was added to start the enzyme-catalyzed reaction, and incubated at room temperature for 60 min. Then 10 µL/well of a 250 μM cold Ac-CoA solution was added to stop the reaction. Finally 25 μL/well of the reaction solution was transferred to a 384-well Flashplate (Perkin Elmer, Cat. No. SMP410A001PK), and incubated at room temperature for 1 h. The resultant was washed with double distilled water+0.1% Tween-20 three times. The signal value was read by using Microbeta. The data was analyzed by using GraphPad Prism 5.0 software to obtain IC50.
row,IC50,SMILES
1,640 nM,CNC(=O)Nc1ccc2c(c1)CC[C@]21OC(=O)N(CC(=O)N2Cc3ccccc3CC[C@@H]2C2CC2)C1=O [SYY-B017-1]
2,270 nM,CNC(=O)Nc1ccc2c(c1)CC[C@@]21OC(=O)N(CC(=O)N2Cc3ccccc3CC[C@@H]2C2CC2)C1=O [SYY-B017-2]
3,200 nM,CNC(=O)Nc1ccc2c(c1)CC[C@]21OC(=O)N(CC(=O)N2Cc3ccccc3CC[C@@H]2C(C)C)C1=O [SYY-B020-1]
4,45 nM,CNC(=O)Nc1ccc2c(c1)CC[C@@]21OC(=O)N(CC(=O)N2Cc3ccccc3CC[C@@H]2C(C)C)C1=O [SYY-B020-2]
5,54 nM,CNC(=O)Nc1ccc2c(c1)CC[C@]21OC(=O)N(CC(=O)N2Cc3ccc(F)cc3CC[C@@H]2C)C1=O [SYY-B022-1]
6,12 nM,CNC(=O)Nc1ccc2c(c1)CC[C@@]21OC(=O)N(CC(=O)N2Cc3ccc(F)cc3CC[C@@H]2C)C1=O [SYY-B022-2]
7,47 nM,CCC[C@H]1CCc2ccccc2CN1C(=O)CN1C(=O)O[C@]2(CCc3cc(NC(=O)NC)ccc32)C1=O [SYY-B024-1]
8,22 nM,CNC(=O)Nc1ccc2c(c1)CC[C@]21OC(=O)N(CC(=O)N2Cc3ccc(F)cc3CC[C@@H]2C2CC2)C1=O [SYY-B026-1]
9,1100 nM,CNC(=O)Nc1ccc2c(c1)CC[C@]21OC(=O)N(CC(=O)N2Cc3ccccc3CC[C@@H]2C(F)(F)F)C1=O [SYY-B028-1]
10,55 nM,CNC(=O)Nc1ccc2c(c1)CC[C@@]21OC(=O)N(CC(=O)N2Cc3ccccc3CC[C@@H]2C(F)(F)F)C1=O [SYY-B028-2]
11,230 nM,CNC(=O)Nc1ccc2c(c1)CC[C@]21OC(=O)N(CC(=O)N2Cc3cc(F)ccc3OC[C@@H]2C2CC2)C1=O [SYY-B030-1]
12,230 nM,CNC(=O)Nc1ccc2c(c1)CC[C@@]21OC(=O)N(CC(=O)N2Cc3cc(F)ccc3OC[C@@H]2C2CC2)C1=O [SYY-B030-2]
13,37 nM,CNC(=O)Nc1ccc2c(c1)CC[C@@]21OC(=O)N(CC(=O)N2Cc3ccc(F)cc3CC[C@@H]2C(F)(F)F)C1=O [SYY-B032-2]
14,> 100 nM,CNC(=O)Nc1ccc2c(c1)CCC21NC(=O)N(CC(=O)N2Cc3ccc(F)cc3CC[C@@H]2C2CC2)C1=O (some centres unmarked) [SYY-B034]
15,180 nM,NC1(C(=O)Nc2ccc3c(c2)CC[C@]32OC(=O)N(CC(=O)N3Cc4ccc(F)cc4CC[C@@H]3C3CC3)C2=O)CC1 [SYY-B036-1]
16,1500 nM,NC1(C(=O)Nc2ccc3c(c2)CC[C@@]32OC(=O)N(CC(=O)N3Cc4ccc(F)cc4CC[C@@H]3C3CC3)C2=O)CC1 [SYY-B036-2]
17,> 100 nM,CC(C)(N)C(=O)Nc1ccc2c(c1)CC[C@]21OC(=O)N(CC(=O)N2Cc3ccc(F)cc3CC[C@@H]2C2CC2)C1=O [SYY-B037-2]
18,> 100 nM,CC(C)(N)C(=O)Nc1ccc2c(c1)CC[C@@]21OC(=O)N(CC(=O)N2Cc3ccc(F)cc3CC[C@@H]2C2CC2)C1=O [SYY-B038-2]
19,130 nM,NC1(C(=O)Nc2ccc3c(c2)CC[C@]32OC(=O)N(CC(=O)N3Cc4ccc(F)cc4CC[C@@H]3C3CC3)C2=O)CCC1 [SYY-B040-1]

row,IC50,SMILES
1,160 nM,NC1(C(=O)Nc2ccc3c(c2)CC[C@@]32OC(=O)N(CC(=O)N3Cc4ccc(F)cc4CC[C@@H]3C3CC3)C2=O)CCC1 [SYY-B040-2]
2,> 50 nM,Cn1cc(-c2ccc3c(c2)CCC32NC(=O)N(CC(=O)N3Cc4ccc(F)cc4CC[C@@H]3C3CC3)C2=O)cn1 (some centres unmarked) [SYY-B044]
3,> 50 nM,CNC(=O)Cn1cc(-c2ccc3c(c2)CCC32NC(=O)N(CC(=O)N3Cc4ccc(F)cc4CC[C@@H]3C3CC3)C2=O)cn1 (some centres unmarked) [SYY-B046]
4,8.9 nM,CNC(=O)Nc1ccc2c(c1)CC[C@]21OC(=O)N(CC(=O)N2Cc3cc(F)ccc3OC[C@H]2C(F)(F)F)C1=O [SYY-B057-1]
5,< 200 nM,CNC(=O)Nc1ccc2c(c1)CC[C@]21OC(=O)N(CC(=O)N2Cc3cccnc3CC[C@H]2C2CC2)C1=O [SYY-B081-1]
6,6.8 nM,CNC(=O)Nc1ccc2c(c1)CC[C@@]21OC(=O)N(CC(=O)N2Cc3cccnc3CC[C@H]2C2CC2)C1=O [SYY-B081-2]
7,< 10 nM,CNC(=O)Nc1ccc2c(c1)CCC21NC(=O)N(CC(=O)N2Cc3cc(F)c(F)cc3CC[C@H]2C2CC2)C1=O (some centres unmarked) [SYY-B088]
8,1.37 nM,CNC(=O)Nc1ccc2c(c1)CC[C@]21OC(=O)N(CC(=O)N2Cc3cc(F)c(F)cc3CC[C@H]2C2CC2)C1=O [SYY-B090-1]
9,1.58 nM,CNC(=O)Nc1ccc2c(c1)CC[C@@]21OC(=O)N(CC(=O)N2Cc3cc(F)c(F)cc3CC[C@H]2C2CC2)C1=O [SYY-B090-2]
10,< 100 nM,Cn1cc(-c2ccc3c(c2)CCCC32OC(=O)N(CC(=O)N3Cc4cc(F)ccc4OC[C@H]3C3CC3)C2=O)cn1 (some centres unmarked) [SYY-B094]
11,11.7 nM,CNC(=O)Nc1ccc2c(c1)CC[C@]21OC(=O)N(CC(=O)N2Cc3ncccc3CC[C@H]2C2CC2)C1=O [SYY-B095-1]
12,7.4 nM,CNC(=O)Nc1ccc2c(c1)CC[C@@]21OC(=O)N(CC(=O)N2Cc3ncccc3CC[C@H]2C2CC2)C1=O [SYY-B096-2]
13,42.3 nM,CNC(=O)Nc1ccc2c(c1)CC[C@]21OC(=O)N(CC(=O)N2Cc3ccncc3CC[C@H]2C2CC2)C1=O [SYY-B097-1]
14,4 nM,CNC(=O)Nc1ccc2c(c1)CC[C@@]21OC(=O)N(CC(=O)N2Cc3ccncc3CC[C@H]2C2CC2)C1=O [SYY-B097-2]
15,20.6 nM,CNC(=O)Nc1ccc2c(c1)CC[C@]21OC(=O)N(CC(=O)N2Cc3sccc3OC[C@H]2C2CC2)C1=O [SYY-B100-1]
16,16.8 nM,CNC(=O)Nc1ccc2c(c1)CC[C@@]21OC(=O)N(CC(=O)N2Cc3sccc3OC[C@H]2C2CC2)C1=O [SYY-B100-2]
17,13.9 nM,CNC(=O)Nc1ccc2c(c1)CC[C@]21OC(=O)N(CC(=O)N2Cc3ccsc3CC[C@H]2C2CC2)C1=O [SYY-B102-1]
18,0.55 nM,CNC(=O)Nc1ccc2c(c1)CC[C@@]21OC(=O)N(CC(=O)N2Cc3ccsc3CC[C@H]2C2CC2)C1=O [SYY-B102-2]
19,< 20 nM,CNC(=O)Nc1ccc2c(c1)CCC21NC(=O)N(CC(=O)N2Cc3ccsc3CC[C@H]2C2CC2)C1=O (some centres unmarked) [SYY-B104]

row,IC50,SMILES
1,< 20 nM,CNC(=O)Nc1ccc2c(c1)COCC21NC(=O)N(CC(=O)N2Cc3cc(F)ccc3OC[C@H]2C2CC2)C1=O (some centres unmarked) [SYY-B106]
2,< 50 nM,CNC(=O)Nc1ccc2c(c1)CCC21NC(=O)N(CC(=O)N2Cc3sccc3OC[C@H]2C2CC2)C1=O (some centres unmarked) [SYY-B108]
3,< 10 nM,Cn1cc(-c2ccc3c(c2)OCC32NC(=O)N(CC(=O)N3Cc4cc(F)ccc4OC[C@H]3C3CC3)C2=O)cn1 (some centres unmarked) [SYY-B110]
4,< 10 nM,CNC(=O)Nc1ccc2c(c1)COCC21OC(=O)N(CC(=O)N2Cc3cc(F)ccc3OC[C@H]2C2CC2)C1=O (some centres unmarked) [SYY-B112]
5,140 nM,CNC(=O)Nc1ccc2c(c1)CC[C@]21OC(=O)N(CC(=O)N2Cc3sc(C)c(C)c3CC[C@H]2C2CC2)C1=O [SYY-B116-1]
6,2 nM,CNC(=O)Nc1ccc2c(c1)CC[C@@]21OC(=O)N(CC(=O)N2Cc3sc(C)c(C)c3CC[C@H]2C2CC2)C1=O [SYY-B116-2]
7,6.6 nM,CNC(=O)Nc1ccc2c(c1)CC[C@@]21OC(=O)N(CC(=O)N2Cc3sc(C)c(C)c3OC[C@H]2C2CC2)C1=O [SYY-B118-2]
8,< 10 nM,CNC(=O)Nc1ccc2c(c1)CCC21NC(=O)N(CC(=O)N2Cc3ccsc3OC[C@H]2C2CC2)C1=O (some centres unmarked) [SYY-B122]
9,< 20 nM,CNC(=O)Nc1ccc2c(c1)CCC21NC(=O)N(CC(=O)N2Cc3sccc3CC[C@H]2C2CC2)C1=O (some centres unmarked) [SYY-B124]
10,0.5 nM,CNC(=O)Nc1ccc2c(c1)CC[C@@]21OC(=O)N(CC(=O)N2Cc3sccc3CC[C@H]2C2CC2)C1=O [SYY-B126-2]
11,< 10 nM,Cn1cc(-c2ccc3c(c2)S(=O)(=O)C[C@]32NC(=O)N(CC(=O)N3Cc4cc(F)ccc4OC[C@H]3C(F)(F)F)C2=O)cn1 [SYY-B130]
12,< 10 nM,Cn1cc(-c2ccc3c(c2)C(F)C[C@]32NC(=O)N(CC(=O)N3Cc4cc(F)ccc4OC[C@H]3C3CC3)C2=O)cn1 (some centres unmarked) [SYY-B132-2]
13,< 10 nM,CNC(=O)Nc1ccc2c(c1)CC[C@]21OC(=O)N(CC(=O)N2Cc3cnccc3CC[C@H]2C2CC2)C1=O [SYY-B136-1]
14,< 10 nM,CNC(=O)Nc1ccc2c(c1)CC[C@@]21OC(=O)N(CC(=O)N2Cc3cnccc3CC[C@H]2C2CC2)C1=O [SYY-B136-2]
15,7 nM,CNC(=O)Nc1ccc2c(c1)CC[C@@]21OC(=O)N(CC(=O)N2Cc3sccc3OC[C@H]2C(F)(F)F)C1=O [SYY-B140-2]
16,< 50 nM,CNC(=O)Nc1ccc2c(c1)CCC21NC(=O)N(CC(=O)N2Cc3sccc3OC[C@H]2C(F)(F)F)C1=O (some centres unmarked) [SYY-B142]
17,< 50 nM,Cn1cc(-c2ccc3c(c2)CCC32OC(=O)N(CC(=O)N3Cc4sccc4OC[C@H]3C(F)(F)F)C2=O)cn1 (some centres unmarked) [SYY-B144]
18,< 30 nM,CNC(=O)Nc1ccc2c(c1)OCC21NC(=O)N(CC(=O)N2Cc3cc(F)ccc3OC[C@H]2C2CC2)C1=O (some centres unmarked) [SYY-B156]
